# Assays:
# Assay in all cases: in vitro antibacterial evaluation, MIC by broth dilution
# Format in all cases: cell-based
# [1] = system: Enterococcus sp.; conditions: broth dilution, 18 hours at 35° C.
# Procedure, shortened: (§1)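 Following National Committee for Clinical Laboratory Standards recommendations (M7-A2), susceptibility was measured by dilution in Muller-Hinton II […]. Bacteria were seeded at 5×10^5 CFU/mL against compound concentrations from 64 down to 0.06 μg/mL.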
# [2] = system: Staphylococcus sp.; conditions: broth dilution, 18 hours at 35° C.
# Procedure, shortened: as §1
# [3] = system: Streptococcus sp.; conditions: broth dilution, 18 hours at 35° C.
# Procedure, shortened: as §1
# [4] = system: Escherichia coli; conditions: 18 hours at 35° C.
compound,measurement,setting,value
CCCCCNC(=O)OC1C(CO)OC(OC2C(CO)OC(Oc3ccc(CC4NC(=O)C(C(C)c5ccccc5)NC(=O)CNC(=O)C(CO)NC(=O)C(C(O)C5CNC(=N)N5C5OC(CO)C(O)C(O)C5O)NC(=O)C(C(O)C5CNC(=N)N5)NC4=O)cc3)C(O)C2O)C(O)C1O (stereo not drawn) [Example 251],MIC Enterococcus avium (GC 4558),[1],>64 µg/mL
same,MIC Enterococcus faecalis (ATCC 29212),[1],>64 µg/mL
same,MIC Enterococcus faecalis (GC 2242),[1],>64 µg/mL
same,MIC Enterococcus faecalis (GC 4552),[1],>64 µg/mL
same,MIC Enterococcus faecalis (GC 4553),[1],>64 µg/mL
same,MIC Enterococcus faecalis (GC 4554),[1],>64 µg/mL
same,MIC Enterococcus faecium (GC 2243),[1],>64 µg/mL
same,MIC Enterococcus faecium (GC 4556),[1],>64 µg/mL
same,MIC Enterococcus faecium (GC 4557),[1],64 µg/mL
same,MIC Enterococcus faecalis (ATCC 29212),[1]; strain ATCC 29212,>64 µg/mL
same,MIC Enterococcus faecalis (GC 2242),[1]; strain GC 2242,>64 µg/mL
same,MIC Enterococcus faecium (GC 2243),[1]; strain GC 2243,>64 µg/mL
same,MIC Enterococcus faecalis (GC 4552),[1]; strain GC 4552,>64 µg/mL
same,MIC Enterococcus faecalis (GC 4553),[1]; strain GC 4553,>64 µg/mL
same,MIC Enterococcus faecalis (GC 4554),[1]; strain GC 4554,>64 µg/mL
same,MIC Enterococcus faecium (GC 4556),[1]; strain GC 4556,>64 µg/mL
same,MIC Enterococcus faecium (GC 4557),[1]; strain GC 4557,64 µg/mL
same,MIC Enterococcus avium (GC 4558),[1]; strain GC 4558,>64 µg/mL
same,MIC Coagulase Negative Staphylococcus (GC 4547),[2],>64 µg/mL
same,MIC Coagulase Negative Staphylococcus (GC 4548),[2],>64 µg/mL
same,MIC Coagulase Negative Staphylococcus (GC 4549),[2],>64 µg/mL
same,MIC Coagulase Negative Staphylococcus (GC 4551),[2],>64 µg/mL
same,MIC Coagulase Negative Staphylococcus (ID-3941),[2],64 µg/mL
same,MIC Staphylococcus aureus (ATCC 29213),[2],>64 µg/mL
same,MIC Staphylococcus aureus (GC 1131),[2],>64 µg/mL
same,MIC Staphylococcus aureus (GC 4541),[2],>64 µg/mL
same,MIC Staphylococcus aureus (GC 4542),[2],>64 µg/mL
same,MIC Staphylococcus aureus (GC 4544),[2],>64 µg/mL
same,MIC Staphylococcus aureus (GC 4545),[2],>64 µg/mL
same,MIC Staphylococcus aureus-SMITH (GC 4543),[2],>64 µg/mL
same,MIC Staphylococcus haemolyticus (GC 4546),[2],>64 µg/mL
same,MIC Staphylococcus aureus (ATCC 29213),[2]; strain ATCC 29213,>64 µg/mL
same,MIC Staphylococcus aureus (GC 1131),[2]; strain GC 1131,>64 µg/mL
same,MIC Staphylococcus aureus (GC 4541),[2]; strain GC 4541,>64 µg/mL
same,MIC Staphylococcus aureus (GC 4542),[2]; strain GC 4542,>64 µg/mL
same,MIC Staphylococcus aureus-SMITH (GC 4543),[2]; strain GC 4543,>64 µg/mL
same,MIC Staphylococcus aureus (GC 4544),[2]; strain GC 4544,>64 µg/mL
same,MIC Staphylococcus aureus (GC 4545),[2]; strain GC 4545,>64 µg/mL
same,MIC Staphylococcus haemolyticus (GC 4546),[2]; strain GC 4546,>64 µg/mL
same,MIC Coagulase Negative Staphylococcus (GC 4547),[2]; strain GC 4547,>64 µg/mL
same,MIC Coagulase Negative Staphylococcus (GC 4548),[2]; strain GC 4548,>64 µg/mL
same,MIC Coagulase Negative Staphylococcus (GC 4549),[2]; strain GC 4549,>64 µg/mL
same,MIC Coagulase Negative Staphylococcus (GC 4551),[2]; strain GC 4551,>64 µg/mL
same,MIC Coagulase Negative Staphylococcus (ID-3941),[2]; strain ID-3941,64 µg/mL
same,MIC Streptococcus agalactiae (GC 4564),[3],>64 µg/mL
same,MIC Streptococcus pneumoniae (GC 4565),[3],64 µg/mL
same,MIC Streptococcus pyogenes (ID-3187),[3],64 µg/mL
same,MIC Streptococcus agalactiae (GC 4564),[3]; strain GC 4564,>64 µg/mL
same,MIC Streptococcus pneumoniae (GC 4565),[3]; strain GC 4565,64 µg/mL
same,MIC Streptococcus pyogenes (ID-3187),[3]; strain ID-3187,64 µg/mL
same,MIC Escherichia coli (ATCC 25922),[4],>64 µg/mL
same,MIC Escherichia coli (GC 4559),[4],>64 µg/mL
same,MIC Escherichia coli (GC 4560),[4],4 µg/mL
CC(c1ccccc1)C1NC(=O)CNC(=O)C(CO)NC(=O)C(C(O)C2CNC(=N)N2C2OC(CO)C(O)C(O)C2O)NC(=O)C(C(O)C2CNC(=N)N2)NC(=O)C(Cc2ccc(OC3OC(CO)C(OC4OC(COCc5ccc(Oc6ccccc6)cc5)C(O)C(O)C4O)C(O)C3O)cc2)NC1=O (stereo not drawn) [Example 236],MIC Enterococcus avium (GC 4558),[1],2 µg/mL
same,MIC Enterococcus faecalis (ATCC 29212),[1],4 µg/mL
same,MIC Enterococcus faecalis (GC 2242),[1],4 µg/mL
same,MIC Enterococcus faecalis (GC 2691),[1],2 µg/mL
same,MIC Enterococcus faecalis (GC 3059),[1],2 µg/mL
same,MIC Enterococcus faecalis (GC 4552),[1],4 µg/mL
same,MIC Enterococcus faecalis (GC 4553),[1],4 µg/mL
same,MIC Enterococcus faecalis (GC 4554),[1],4 µg/mL
same,MIC Enterococcus faecalis (GC 6189),[1],2 µg/mL
same,MIC Enterococcus faecium (GC 2243),[1],4 µg/mL
same,MIC Enterococcus faecium (GC 4556),[1],4 µg/mL
same,MIC Enterococcus faecium (GC 4557),[1],2 µg/mL
same,MIC Enterococcus faecalis (ATCC 29212),[1]; strain ATCC 29212,4 µg/mL
same,MIC Enterococcus faecium (GC 2243),[1]; strain GC 2243,4 µg/mL
same,MIC Enterococcus faecalis (GC 4552),[1]; strain GC 4552,4 µg/mL
same,MIC Enterococcus faecalis (GC 4553),[1]; strain GC 4553,4 µg/mL
same,MIC Enterococcus faecalis (GC 4554),[1]; strain GC 4554,4 µg/mL
same,MIC Enterococcus faecium (GC 4556),[1]; strain GC 4556,4 µg/mL
same,MIC Enterococcus faecium (GC 4557),[1]; strain GC 4557,2 µg/mL
same,MIC Enterococcus avium (GC 4558),[1]; strain GC 4558,2 µg/mL
same,MIC Enterococcus faecalis (GC 6189),[1]; strain GC 6189,2 µg/mL
same,MIC Enterococcus faecalis (GC 2242),"[1]; inoculum 5×10^5 CFU/mL, strain GC 2242",4 µg/mL
same,MIC Enterococcus faecalis (GC 2691),"[1]; inoculum 5×10^5 CFU/mL, strain GC 2691",2 µg/mL
same,MIC Enterococcus faecalis (GC 3059),"[1]; inoculum 5×10^5 CFU/mL, strain GC 3059",2 µg/mL
same,MIC Coagulase Negative Staphylococcus (GC 4547),[2],2 µg/mL
same,MIC Coagulase Negative Staphylococcus (GC 4548),[2],0.5 µg/mL
same,MIC Coagulase Negative Staphylococcus (GC 4549),[2],0.5 µg/mL
same,MIC Coagulase Negative Staphylococcus (GC 4551),[2],2 µg/mL
same,MIC Coagulase Negative Staphylococcus (GC 6257),[2],1 µg/mL
same,MIC Staphylococcus aureus (ATCC 29213),[2],2 µg/mL
same,MIC Staphylococcus aureus (GC 1131),[2],2 µg/mL
same,MIC Staphylococcus aureus (GC 3051),[2],2 µg/mL
same,MIC Staphylococcus aureus (GC 3053),[2],2 µg/mL
same,MIC Staphylococcus aureus (GC 4541),[2],2 µg/mL
same,MIC Staphylococcus aureus (GC 4542),[2],4 µg/mL
same,MIC Staphylococcus aureus (GC 4544),[2],2 µg/mL
same,MIC Staphylococcus aureus (GC 4545),[2],2 µg/mL
same,MIC Staphylococcus aureus-SMITH (GC 4543),[2],2 µg/mL
same,MIC Staphylococcus haemolyticus (GC 4546),[2],2 µg/mL
same,MIC Staphylococcus aureus (ATCC 29213),[2]; strain ATCC 29213,2 µg/mL
same,MIC Staphylococcus aureus (GC 1131),[2]; strain GC 1131,2 µg/mL
same,MIC Staphylococcus aureus (GC 3051),[2]; strain GC 3051,2 µg/mL
same,MIC Staphylococcus aureus (GC 3053),[2]; strain GC 3053,2 µg/mL
same,MIC Staphylococcus aureus (GC 4541),[2]; strain GC 4541,2 µg/mL
same,MIC Staphylococcus aureus (GC 4542),[2]; strain GC 4542,4 µg/mL
same,MIC Staphylococcus aureus-SMITH (GC 4543),[2]; strain GC 4543,2 µg/mL
same,MIC Staphylococcus aureus (GC 4544),[2]; strain GC 4544,2 µg/mL
same,MIC Staphylococcus aureus (GC 4545),[2]; strain GC 4545,2 µg/mL
same,MIC Staphylococcus haemolyticus (GC 4546),[2]; strain GC 4546,2 µg/mL
same,MIC Coagulase Negative Staphylococcus (GC 4547),[2]; strain GC 4547,2 µg/mL
same,MIC Coagulase Negative Staphylococcus (GC 4548),[2]; strain GC 4548,0.5 µg/mL
same,MIC Coagulase Negative Staphylococcus (GC 4549),[2]; strain GC 4549,0.5 µg/mL
same,MIC Coagulase Negative Staphylococcus (GC 4551),[2]; strain GC 4551,2 µg/mL
same,MIC Coagulase Negative Staphylococcus (GC 6257),[2]; strain GC 6257,1 µg/mL
same,MIC Streptococcus agalactiae (GC 4564),[3],0.12 µg/mL
same,MIC Streptococcus pneumoniae (ATCC 6301),[3],<0.06 µg/mL
same,MIC Streptococcus pneumoniae (GC 1894),[3],<0.06 µg/mL
same,MIC Streptococcus pneumoniae (GC 4565),[3],<0.06 µg/mL
same,MIC Streptococcus pyogenes (GC 4563),[3],<0.06 µg/mL
same,MIC Streptococcus pneumoniae (ATCC 6301),"[3]; inoculum 5×10^5 CFU/mL, strain ATCC 6301",<0.06 µg/mL
same,MIC Streptococcus pneumoniae (GC 1894),"[3]; inoculum 5×10^5 CFU/mL, strain GC 1894",<0.06 µg/mL
same,MIC Streptococcus pyogenes (GC 4563),"[3]; inoculum 5×10^5 CFU/mL, strain GC 4563",<0.06 µg/mL
same,MIC Streptococcus agalactiae (GC 4564),"[3]; inoculum 5×10^5 CFU/mL, strain GC 4564",0.12 µg/mL
same,MIC Streptococcus pneumoniae (GC 4565),"[3]; inoculum 5×10^5 CFU/mL, strain GC 4565",<0.06 µg/mL
same,MIC Escherichia coli (ATCC 25922),[4],>64 µg/mL
same,MIC Escherichia coli (GC 4559),[4],>64 µg/mL
same,MIC Escherichia coli (GC 4560),[4],1 µg/mL

# Source: patent publication US6914045B2, “Glycopeptide antibiotics” (Wyeth Holdings Corporation, priority 2001, dated 2005)
